For 13 compounds, IC50 results are on record in PubChem BioAssay AID504570 (Southern Research Specialized Biocontainment Screening …, 2011).

This test relates to MAGI-CCR5 HeLa cells, HIV-1 IIIB, beta-gal luminescence, 48 h. The experiment in a line: inhibitors of X4-tropic HIV-1 replication, dose response, cell-based, MAGI-CCR5 HeLa, beta-gal luminescence, 2% serum, set 2 (AID 504570).

Structures are written as SMILES.

With `Cc1c2c(=O)n(-c3nc4ccccc4s3)nc-2cc(O)n1CCc1cccs1`, the 50% inhibitory concentration (IC50) was 26 µM. Next, `COc1ccc(Cn2c(O)cc3nn(-c4nc5ccccc5s4)c(=O)c-3c2C)cc1`: 33.6 µM. As for `Cc1c2c(=O)n(-c3nc4ccccc4s3)nc-2cc(O)n1Cc1ccccc1`, the half-inhibitory concentration (IC50) is 14.5 µM.

For `Cc1c2c(=O)n(-c3nc4ccccc4s3)nc-2cc(O)n1Cc1ccncc1`, the IC50 is 14.7 µM. Consider `Cc1c2c(=O)n(-c3nc4ccccc4s3)nc-2cc(O)n1Cc1cccs1`, for which the concentration for half-maximal inhibition (IC50) is 11.9 µM.

For `Cc1c2c(=O)n(-c3nc4ccccc4s3)nc-2cc(O)n1Cc1cccnc1`, the 50% inhibitory concentration (IC50) was 7.09 µM. Then `Cc1c2c(=O)n(-c3nc4ccccc4s3)nc-2cc(O)n1Cc1ccc(F)cc1`, with 3.75 µM; and `Cc1c2c(=O)n(-c3nc4ccccc4s3)nc-2cc(O)n1C1CC1`, with 7.53 µM. For `COc1ccccc1Cn1c(O)cc2nn(-c3nc4ccccc4s3)c(=O)c-2c1C`, the half-inhibitory concentration (IC50) is 26.5 µM. Regarding `Cc1c2c(=O)n(-c3nc4ccccc4s3)nc-2cc(O)n1CCc1ccc(O)cc1`, the IC50 was 25.6 µM.

Consider `Cc1c2c(=O)n(-c3nc4ccccc4s3)nc-2cc(O)n1CCC(C)C`, for which the concentration for half-maximal inhibition (IC50) is 5.34 µM. Consider `COc1ccc(CCn2c(O)cc3nn(-c4nc5ccccc5s4)c(=O)c-3c2C)cc1`, for which the half-maximal inhibitory concentration (IC50) was 11.8 µM. For the compound `Cc1c2c(=O)n(-c3nc4ccccc4s3)nc-2cc(O)n1Cc1ccccc1Cl`, the half-maximal inhibitory concentration (IC50) was 3.07 µM.
